PubChem BioAssay (NCI)
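Results reflect a 48-hour exposure of cells in 96-well plates to compound at five concentrations. TGI: concentration producing complete growth inhibition.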

What was measured:
Test in all cases: growth of human tumour cells (NCI), 48 h
[1] = tested on: MOLT-4 leukemia
[2] = tested on: UACC-257 melanoma
[3] = tested on: SK-MEL-5 melanoma
[4] = tested on: MDA-N
[5] = tested on: KM12 colon
[6] = tested on: MCF7 breast
[7] = tested on: LOX IMVI melanoma
[8] = tested on: OVCAR-3 ovarian
[9] = tested on: RPMI-8226 leukemia
[10] = tested on: ACHN renal
[11] = tested on: HCT-116 colon
[12] = tested on: NCI-H23 lung
[13] = tested on: HCT-15 colon
[14] = tested on: M14 melanoma
[15] = tested on: A549 NSCLC
[16] = tested on: OVCAR-4 ovarian
[17] = tested on: HCC-2998 colon
[18] = tested on: CAKI-1 renal
[19] = tested on: SF-295 CNS
[20] = tested on: HT29 colon
[21] = tested on: PC-3 prostate
[22] = tested on: EKVX NSCLC
[23] = tested on: K-562 leukemia
[24] = tested on: SK-MEL-28 melanoma
[25] = tested on: SNB-75 CNS
[26] = tested on: NCI-H226 lung
[27] = tested on: MDA-MB-435
[28] = tested on: MALME-3M melanoma
[29] = tested on: NCI-H522 lung
[30] = tested on: MDA-MB-231 breast
[31] = tested on: SK-OV-3 ovarian
[32] = tested on: SK-MEL-2 melanoma
[33] = tested on: CCRF-CEM leukemia
[34] = tested on: UO-31 renal
[35] = tested on: OVCAR-5 ovarian
[36] = tested on: COLO 205 colon
[37] = tested on: SN12C renal
[38] = tested on: UACC-62 melanoma
[39] = tested on: HOP-92 NSCLC
[40] = tested on: A498 renal
[41] = tested on: DU-145 prostate
[42] = tested on: U251 CNS
[43] = tested on: HL-60(TB) leukemia
[44] = tested on: NCI-H460 lung
[45] = tested on: RXF 393 renal
[46] = tested on: TK-10 renal
[47] = tested on: NCI/ADR-RES ovarian
[48] = tested on: IGROV1 ovarian
[49] = tested on: HS 578T breast
[50] = tested on: OVCAR-8 ovarian
[51] = tested on: BT-549 breast
[52] = tested on: T-47D breast
[53] = tested on: SR leukemia
[54] = tested on: HOP-62 NSCLC
[55] = tested on: SF-268 CNS
[56] = tested on: SNB-19 CNS
[57] = tested on: 786-0 renal
[58] = tested on: SF-539 CNS
[59] = tested on: SW-620 colon

## C/C(=N/NC(=S)N(C)C)c1ccccc1O
[1]
  TGI: 97.7 µM
[2]
  TGI: 63.4 µM
[3]
  TGI: > 49.8 µM
[4]
  TGI: > 100 µM
[5]
  TGI: > 100 µM
[6]
  TGI: > 40.4 µM
[7]
  TGI: > 75.1 µM
[8]
  TGI: > 26.3 µM
[9]
  TGI: > 100 µM
[10]
  TGI: > 76.5 µM
[11]
  TGI: 34.8 µM
[12]
  TGI: > 100 µM
[13]
  TGI: > 100 µM
[14]
  TGI: 23.4 µM
[15]
  TGI: > 100 µM
[16]
  TGI: > 85 µM
[17]
  TGI: > 100 µM
[18]
  TGI: > 100 µM
[19]
  TGI: > 100 µM
[20]
  TGI: > 100 µM
[21]
  TGI: > 100 µM
[22]
  TGI: > 100 µM
[23]
  TGI: > 100 µM
[24]
  TGI: > 100 µM
[25]
  TGI: 82.9 µM
[26]
  TGI: > 66.3 µM
[27]
  TGI: > 100 µM
[28]
  TGI: > 76.1 µM
[29]
  TGI: > 100 µM
[30]
  TGI: > 100 µM
[31]
  TGI: > 100 µM
[32]
  TGI: > 100 µM
[33]
  TGI: 21 µM
[34]
  TGI: > 100 µM
[35]
  TGI: > 100 µM
[36]
  TGI: > 58.6 µM
[37]
  TGI: > 100 µM
[38]
  TGI: 27 µM
[39]
  TGI: > 100 µM
[40]
  TGI: 97.9 µM
[41]
  TGI: > 100 µM
[42]
  TGI: > 100 µM
[43]
  TGI: > 51.9 µM
[44]
  TGI: 30.1 µM
[45]
  TGI: > 100 µM
[46]
  TGI: > 100 µM
[47]
  TGI: 13.8 µM
[48]
  TGI: > 100 µM
[49]
  TGI: > 100 µM
[50]
  TGI: > 74.4 µM
[51]
  TGI: > 100 µM
[52]
  TGI: > 85.8 µM
[53]
  TGI: > 39.5 µM
[54]
  TGI: > 100 µM
[55]
  TGI: > 38.2 µM
[56]
  TGI: > 100 µM
[57]
  TGI: > 100 µM
[58]
  TGI: 50.3 µM
[59]
  TGI: > 100 µM

## COC1=CC(=O)c2c(cc(COP(N)(=O)N(CCCl)CCCl)n2C)C1=O (configuration not stated)
[1]
  TGI: 0.382 µM
[2]
  TGI: 14.2 µM
[3]
  TGI: 2.82 µM
[4]
  TGI: 4.09 µM
[5]
  TGI: 5.02 µM
[6]
  TGI: 9.55 µM
[7]
  TGI: 1.73 µM
[8]
  TGI: 2.37 µM
[9]
  TGI: 4.73 µM
[10]
  TGI: 1.18 µM
[11]
  TGI: 0.707 µM
[12]
  TGI: 3.41 µM
[13]
  TGI: 3.54 µM
[14]
  TGI: 2.74 µM
[15]
  TGI: 4.31 µM
[16]
  TGI: 16.3 µM
[17]
  TGI: 2.3 µM
[18]
  TGI: < 0.0478 µM
[19]
  TGI: 2.82 µM
[20]
  TGI: 4.33 µM
[21]
  TGI: 10.1 µM
[22]
  TGI: 1.62 µM
[23]
  TGI: 36.9 µM
[24]
  TGI: 8.83 µM
[25]
  TGI: 4.45 µM
[26]
  TGI: 1.32 µM
[27]
  TGI: 3.2 µM
[28]
  TGI: 3.15 µM
[29]
  TGI: 0.802 µM
[30]
  TGI: 8.42 µM
[31]
  TGI: 5.9 µM
[32]
  TGI: 4.12 µM
[33]
  TGI: 8 µM
[34]
  TGI: 2.65 µM
[35]
  TGI: 4.21 µM
[36]
  TGI: 3.08 µM
[37]
  TGI: 1.31 µM
[38]
  TGI: 2.16 µM
[39]
  TGI: 6.66 µM
[40]
  TGI: 5.39 µM
[41]
  TGI: 5.71 µM
[42]
  TGI: 6.77 µM
[43]
  TGI: 3.89 µM
[44]
  TGI: 4.31 µM
[45]
  TGI: 2.95 µM
[46]
  TGI: 5.61 µM
[47]
  TGI: 19.8 µM
[48]
  TGI: 2.66 µM
[49]
  TGI: > 100 µM
[50]
  TGI: 3.2 µM
[51]
  TGI: 2.14 µM
[52]
  TGI: 4.29 µM
[53]
  TGI: 1.31 µM
[54]
  TGI: 7.88 µM
[55]
  TGI: 2.34 µM
[56]
  TGI: 14.2 µM
[57]
  TGI: 10.9 µM
[58]
  TGI: 2.19 µM
[59]
  TGI: 4.21 µM

## N#CCCN(CCC#N)c1ccc(/C=C2\SC(=S)NC2=O)cc1
[1]
  TGI: > 100 µM
[2]
  TGI: > 100 µM
[3]
  TGI: > 100 µM
[4]
  TGI: > 100 µM
[5]
  TGI: > 100 µM
[6]
  TGI: > 100 µM
[7]
  TGI: > 100 µM
[8]
  TGI: > 100 µM
[9]
  TGI: > 100 µM
[10]
  TGI: > 100 µM
[11]
  TGI: > 100 µM
[12]
  TGI: > 100 µM
[13]
  TGI: > 100 µM
[14]
  TGI: > 100 µM
[15]
  TGI: > 100 µM
[16]
  TGI: > 100 µM
[17]
  TGI: > 100 µM
[18]
  TGI: 59.7 µM
[19]
  TGI: > 100 µM
[20]
  TGI: > 100 µM
[21]
  TGI: > 100 µM
[22]
  TGI: > 100 µM
[23]
  TGI: > 100 µM
[24]
  TGI: > 100 µM
[25]
  TGI: > 100 µM
[26]
  TGI: > 100 µM
[27]
  TGI: > 100 µM
[28]
  TGI: > 100 µM
[29]
  TGI: > 100 µM
[30]
  TGI: > 100 µM
[31]
  TGI: > 100 µM
[32]
  TGI: > 100 µM
[33]
  TGI: > 100 µM
[34]
  TGI: > 100 µM
[35]
  TGI: > 100 µM
[36]
  TGI: > 100 µM
[37]
  TGI: > 100 µM
[38]
  TGI: > 100 µM
[39]
  TGI: > 100 µM
[40]
  TGI: > 100 µM
[41]
  TGI: > 100 µM
[42]
  TGI: 47 µM
[43]
  TGI: > 100 µM
[44]
  TGI: > 100 µM
[45]
  TGI: > 100 µM
[46]
  TGI: > 100 µM
[47]
  TGI: > 100 µM
[48]
  TGI: > 100 µM
[49]
  TGI: > 100 µM
[50]
  TGI: > 100 µM
[51]
  TGI: 84.3 µM
[52]
  TGI: > 100 µM
[53]
  TGI: > 100 µM
[54]
  TGI: > 100 µM
[55]
  TGI: > 100 µM
[56]
  TGI: > 100 µM
[57]
  TGI: > 100 µM
[58]
  TGI: > 100 µM
[59]
  TGI: > 100 µM
